Values of other authors, collected in patent publication US12090150B2, “Deuterated analogs of elacridar” (priority 2018, dated 2024).

Tests used:
[1] = tested on: P-gp/BCRP pumps located in the GI tract; settings: cancer patients
[2] = tested on: P-gp and BCRP at the blood brain barrier; settings: rodents; morphine, amprenavir, imatinib, dasatinib, gefitinib, sorafenib, sunitinib

COc1cc2c(cc1OC)CN(CCc1ccc(NC(=O)c3cccc4c(=O)c5cccc(OC)c5[nH]c34)cc1)CC2 [elacridar, 9,10-dihydro-5-methoxy-9-oxo-N-[4-[2-(1,2,3,4-tetrahydro-6,7-dimethoxy-2-isoquinolinyl)ethyl]phenyl]-4-acridine-carboxamide]
solubility in water: practically insoluble in water | oral absorption of coadministered paclitaxel (P-gp substrate) and topotecan (BCRP substrate) [1]: improved | increase of drug levels in the brain of coadministered pump substrates [2]: some success
